How the values were obtained:
Assay type in all cases: cell-based
DU-145 = assay: SRB colorimetric cell growth inhibition assay, DU-145; conditions: Homo sapiens, DU-145, DU-145; for GI50: GI=growth inhibition, read-out: GI50 DU-145; for CC50: cell killing (cytotoxic effect), read-out: LC50 DU-145; for IC (TGI): total growth inhibition (cytostatic effect), read-out: TGI DU-145
Summary of the method: (§1)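 Quantitation uses the sulforhodamine B reaction on cells exposed to sample for the whole assay period; results (mean ± SD, n = 3 wells) yield GI, TGI and LC.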

IGROV-ET = assay: SRB colorimetric cell growth inhibition assay, IGROV-ET (ET-743 resistant); conditions: Homo sapiens, IGROV-ET; for GI50: GI=growth inhibition, read-out: GI50 IGROV-ET; for CC50: cell killing (cytotoxic effect), read-out: LC50 IGROV-ET; for IC (TGI): total growth inhibition (cytostatic effect), read-out: TGI IGROV-ET
Summary of the method: as §1

LoVo-Dox = assay: SRB colorimetric cell growth inhibition assay, LoVo-Dox (MDR); conditions: Homo sapiens, LOVO-DOX; for GI50: GI=growth inhibition, read-out: GI50 LOVO-DOX; for CC50: cell killing (cytotoxic effect), read-out: LC50 LOVO-DOX; for IC (TGI): total growth inhibition (cytostatic effect), read-out: TGI LOVO-DOX
Summary of the method: as §1

A-549 = assay: SRB colorimetric cell growth inhibition assay, A-549; conditions: Homo sapiens, A549, A-549; for GI50: GI=growth inhibition, read-out: GI50 A-549; for CC50: cell killing (cytotoxic effect), read-out: LC50 A-549; for IC (TGI): total growth inhibition (cytostatic effect), read-out: TGI A-549
Summary of the method: as §1

HeLa-APL = assay: SRB colorimetric cell growth inhibition assay, HeLa-APL (aplidine resistant); conditions: Homo sapiens, HELA-APL; for GI50: GI=growth inhibition, read-out: GI50 HELA-APL; for CC50: cell killing (cytotoxic effect), read-out: LC50 HELA-APL; for IC (TGI): total growth inhibition (cytostatic effect), read-out: TGI HELA-APL
Summary of the method: as §1

K-562 = assay: SRB colorimetric cell growth inhibition assay, K-562; conditions: Homo sapiens, K562, K-562; for GI50: GI=growth inhibition, read-out: GI50 K-562; for CC50: cell killing (cytotoxic effect), read-out: LC50 K-562; for IC (TGI): total growth inhibition (cytostatic effect), read-out: TGI K-562
Summary of the method: as §1

IGROV = assay: SRB colorimetric cell growth inhibition assay, IGROV; conditions: Homo sapiens, IGROV; for GI50: GI=growth inhibition, read-out: GI50 IGROV; for CC50: cell killing (cytotoxic effect), read-out: LC50 IGROV; for IC (TGI): total growth inhibition (cytostatic effect), read-out: TGI IGROV
Summary of the method: as §1

HeLa = assay: SRB colorimetric cell growth inhibition assay, HeLa; conditions: Homo sapiens, HeLa; for GI50: GI=growth inhibition, read-out: GI50 HELA; for CC50: cell killing (cytotoxic effect), read-out: LC50 HELA; for IC (TGI): total growth inhibition (cytostatic effect), read-out: TGI HELA
Summary of the method: as §1

PANC-1 = assay: SRB colorimetric cell growth inhibition assay, PANC-1; conditions: Homo sapiens, PANC-1, PANC-1; for GI50: GI=growth inhibition, read-out: GI50 PANC-1; for CC50: cell killing (cytotoxic effect), read-out: LC50 PANC-1; for IC (TGI): total growth inhibition (cytostatic effect), read-out: TGI PANC-1
Summary of the method: as §1

HT-29 = assay: SRB colorimetric cell growth inhibition assay, HT-29; conditions: Homo sapiens, HT-29, HT-29; for GI50: GI=growth inhibition, read-out: GI50 HT-29; for CC50: cell killing (cytotoxic effect), read-out: LC50 HT-29; for IC (TGI): total growth inhibition (cytostatic effect), read-out: TGI HT-29
Summary of the method: as §1

LNCaP = assay: SRB colorimetric cell growth inhibition assay, LNCaP; conditions: Homo sapiens, LNCaP, LN-caP; for GI50: GI=growth inhibition, read-out: GI50 LN-caP; for CC50: cell killing (cytotoxic effect), read-out: LC50 LN-caP; for IC (TGI): total growth inhibition (cytostatic effect), read-out: TGI LN-caP
Summary of the method: as §1

SK-BR-3 = assay: SRB colorimetric cell growth inhibition assay, SK-BR-3; conditions: Homo sapiens, SK-BR-3, SK-BR-3; for GI50: GI=growth inhibition, read-out: GI50 SK-BR-3; for CC50: cell killing (cytotoxic effect), read-out: LC50 SK-BR-3; for IC (TGI): total growth inhibition (cytostatic effect), read-out: TGI SK-BR-3
Summary of the method: as §1

LoVo = assay: SRB colorimetric cell growth inhibition assay, LoVo; conditions: Homo sapiens, LoVo; for GI50: GI=growth inhibition, read-out: GI50 LOVO; for CC50: cell killing (cytotoxic effect), read-out: LC50 LOVO; for IC (TGI): total growth inhibition (cytostatic effect), read-out: TGI LOVO
Summary of the method: as §1

SK-MEL-28 = assay: SRB colorimetric cell growth inhibition assay, SK-MEL-28; conditions: Homo sapiens, SK-MEL-28, MEL-28; for GI50: GI=growth inhibition, read-out: GI50 MEL-28; for CC50: cell killing (cytotoxic effect), read-out: LC50 MEL-28; for IC (TGI): total growth inhibition (cytostatic effect), read-out: TGI MEL-28
Summary of the method: as §1

SMILES: COc1cc2c(cc1O)CCn1c-2cc2c3cc(OC)c(O)cc3oc(=O)c21 [Compound 196]
- GI50 (DU-145): 414 nM
- CC50 (DU-145): 11200 nM
- IC (TGI) (DU-145): 1650 nM
- GI50 (IGROV-ET): 849 nM
- CC50 (IGROV-ET): 26400 nM
- IC (TGI) (IGROV-ET): 3850 nM
- GI50 (LoVo-Dox): 517 nM
- CC50 (LoVo-Dox): 26400 nM
- IC (TGI) (LoVo-Dox): 26400 nM
- GI50 (A-549): 1680 nM
- CC50 (A-549): 26400 nM
- IC (TGI) (A-549): 26400 nM
- GI50 (HeLa-APL): 117 nM
- CC50 (HeLa-APL): 1920 nM
- IC (TGI) (HeLa-APL): 511 nM
- GI50 (K-562): 234 nM
- CC50 (K-562): 1500 nM
- IC (TGI) (K-562): 614 nM
- GI50 (IGROV): 691 nM
- CC50 (IGROV): 16500 nM
- IC (TGI) (IGROV): 2490 nM
- GI50 (HeLa): 351 nM
- CC50 (HeLa): 26400 nM
- IC (TGI) (HeLa): 1930 nM
- GI50 (PANC-1): 957 nM
- CC50 (PANC-1): 26400 nM
- IC (TGI) (PANC-1): 7250 nM
- GI50 (HT-29): 8460 nM
- CC50 (HT-29): 26400 nM
- IC (TGI) (HT-29): 26400 nM
- GI50 (LNCaP): 398 nM
- CC50 (LNCaP): 9780 nM
- IC (TGI) (LNCaP): 1450 nM
- GI50 (SK-BR-3): 654 nM
- CC50 (SK-BR-3): 26400 nM
- IC (TGI) (SK-BR-3): 1650 nM
- GI50 (LoVo): 799 nM
- CC50 (LoVo): 26400 nM
- IC (TGI) (LoVo): 3530 nM
- GI50 (SK-MEL-28): 675 nM
- CC50 (SK-MEL-28): 26400 nM
- IC (TGI) (SK-MEL-28): 8990 nM

SMILES: COc1cc(-c2c3c4cc(OC)c(OC(=O)[C@H](C)N)cc4oc(=O)c3n3ccc4cc(OC(=O)[C@H](C)N)c(OC)cc4c23)ccc1OC(=O)[C@H](C)N [Compound 199]
- GI50 (DU-145): 3.73 nM
- CC50 (DU-145): 37.2 nM
- IC (TGI) (DU-145): 9.93 nM
- GI50 (IGROV-ET): 31.3 nM
- CC50 (IGROV-ET): 12200 nM
- IC (TGI) (IGROV-ET): 159 nM
- GI50 (LoVo-Dox): 73.7 nM
- CC50 (LoVo-Dox): 12200 nM
- IC (TGI) (LoVo-Dox): 499 nM
- GI50 (A-549): 60.6 nM
- CC50 (A-549): 12200 nM
- IC (TGI) (A-549): 1330 nM
- GI50 (HeLa-APL): 71.8 nM
- CC50 (HeLa-APL): 574 nM
- IC (TGI) (HeLa-APL): 242 nM
- GI50 (K-562): 11.2 nM
- CC50 (K-562): 281 nM
- IC (TGI) (K-562): 55.5 nM
- GI50 (IGROV): 18.9 nM
- CC50 (IGROV): 873 nM
- IC (TGI) (IGROV): 96.2 nM
- GI50 (HeLa): 29.9 nM
- CC50 (HeLa): 651 nM
- IC (TGI) (HeLa): 199 nM
- GI50 (PANC-1): 36.9 nM
- CC50 (PANC-1): 8080 nM
- IC (TGI) (PANC-1): 276 nM
- GI50 (HT-29): 2140 nM
- CC50 (HT-29): 12200 nM
- IC (TGI) (HT-29): 6710 nM
- GI50 (LNCaP): 15.8 nM
- CC50 (LNCaP): 392 nM
- IC (TGI) (LNCaP): 89.2 nM
- GI50 (SK-BR-3): 46.6 nM
- CC50 (SK-BR-3): 8280 nM
- IC (TGI) (SK-BR-3): 97.4 nM
- GI50 (LoVo): 128 nM
- CC50 (LoVo): 879 nM
- IC (TGI) (LoVo): 335 nM
- GI50 (SK-MEL-28): 32.6 nM
- CC50 (SK-MEL-28): 7040 nM
- IC (TGI) (SK-MEL-28): 151 nM

From US7396837B2, “Antitumoral analogs of lamellarins” (Pharma Mar, S.A.U., priority 2002, dated 2008)
